The values below come from patent publication US20050037033A1, “Microbicidal compositions and methods and use” (priority 2003, published 2005).

The subject of data set [1] is Prevotella melaninogenica. In words: Anaerobe inhibition assay. The format is cell-based. The note with it: 2 strains, read-out: Minimum Inhibitory Concentrations (MICs).
The test system of a further data set is Peptostrep anaerobius. In words: Anaerobe inhibition assay. In kind it is cell-based. To be noted: 1 strain, read-out: Minimum Inhibitory Concentrations (MICs).
Data set [2] deals with HSV-2. In words: HSV-2 viral binding inhibition assay. In kind it is cell-based. The note with it: Human alphaherpesvirus 2; Vero cells, plaque assay. As for the experimental part:
Confluent Vero cells were incubated with different concentrations of ciclopiroxolamine at 37° C. for 1 hour. 200 pfu of HSV-2 were then added to the cells in the presence of test compound and the cells were incubated at 37° C. for 1 hour. The infected cells were washed with PBS and overlaid with methylcellulose (no drug) for a plaque assay.

The nature of another data set: Cytotoxicity assay. In kind it is cell-based. To be noted: human, HeLa cells. As for the experimental part: The cells listed in Table 4 were incubated for the indicated period of time with different concentrations of ciclopiroxolamine and cell viability was measured by the 3-(4,5-dimethylthiazol-2-yl)-2,5-diphenyltetrazolium bromide (MTT) assay or by treatment with propidium iodide and fluorescence. Percent viability was calculated with respect to the viability of mock-exposed cells (cells incubated without compounds).
In the MTT assay, the effect of each agent on cell viability was determined using an assay in which dehydrogenases in viable cells cleave the compound 3-(4,5-dimethylthiazol-2-yl)-2,5-diphenyltetrazolium bromide (MTT), yielding a purple product (formazan) which can be measured spectrophotometrically (Pauwels et al., 1988). Cells were seeded into 96 well plates at a density of 3×10^4 cells/well 24 hours prior to introduction of the microbicides. Agents were diluted in as previously indicated. Agents were added to triplicate wells in half-log serial dilutions. […] At the conclusion of each experiment, cells were washed, replenished with fresh medium and incubated with MTT (250 μl/well) for 2 hours at 37° C. […] In this assay, measured absorbance is proportional to the viable cell number, and inversely proportional to the degree of cytotoxicity.

For the next data set, the system named is Bacteroides fragilis. In words: Anaerobe inhibition assay. The format is cell-based. To be noted: 1 strain, read-out: Minimum Inhibitory Concentrations (MICs).
Another data set relates to HIV. In words: Cell-free inactivation assay. The format is cell-based. To be noted: virus incubated with product for 2 minutes. As for the experimental part:
Cell-free inactivation assay: Virus was incubated with product for 2 minutes, a series of 10-fold dilutions were made, each dilution was added to the host cells and viral infectivity was measured.

The next data set concerns Staph. aureus. In words: Aerobe inhibition assay. To be noted: 3 strains. In kind it is cell-based, Staphylococcus aureus. As for the experimental part: (§1) The aerobic organisms were suspended into saline to the turbidity of the 0.5 McFarland standard, diluted 1:10, pipetted into the wells of the Steers replicator head, and stamped onto the Mueller Hinton agar plates containing the serial dilutions of the antimicrobials.
(§2) The anaerobes were incubated in an anaerobic chamber at 37° C. for 2 days; aerobes were incubated in ambient air at 36° C. for 20h.

A further data set concerns Peptrostrep. magnus. Description: Anaerobe inhibition assay. In kind it is cell-based. The note with it: 2 strains, read-out: Minimum Inhibitory Concentrations (MICs).
In data set [3] the test system is Peptostrep asaccharolyticus. In words: Anaerobe inhibition assay. In kind it is cell-based. To be noted: 2 strains.
Data set [4] deals with Bacteroides thetaiotaomicron. Description: Anaerobe inhibition assay. The note with it: 1 strain, read-out: Minimum Inhibitory Concentrations (MICs). In kind it is cell-based. The protocol: (§3) Working in an anaerobic chamber, the anaerobes were suspended into brucella broth to the turbidity of the 0.5 McFarland standard and pipetted into the wells of the Steers replicator head, removed from the chamber and stamped onto the supplemented Brucella agar plates containing the serial dilutions of the antimicrobials and the growth control plates. The final inoculum was 10^5 cfu/spot.
as §2

Data set [5] relates to Lactobacilli (L. jensii, L. gasseri, L. acidophilus, L. salivarius). In words: Lactobacillus Steers time-kill (TK) assay, all strains. In kind it is cell-based.
The next data set relates to Mobiluncus curtisii. Description: Anaerobe inhibition assay. In kind it is cell-based. To be noted: 2 strains, read-out: Minimum Inhibitory Concentrations (MICs).
The test system of a further data set is Gardnerella vaginalis. In words: Anaerobe inhibition assay. The format is cell-based. The note with it: 2 strains, read-out: Minimum Inhibitory Concentrations (MICs).
In data set [6] the test system is HIV-1 strain BaL (R5 strain). Description: Viral entry/binding inhibition assay (VBI), strain BaL. The format is cell-based. To be noted: Human immunodeficiency virus 1, Series 2, P4-R5 cells, 2 hour incubation, read-out: 50% Effective Concentrations (IC50). The protocol: (§4) Viral entry inhibition assay (VBI): Cell-free HIV-1 (strain III-B: X4 strain; or strain BaL: R5 strain) was incubated with compound and P4-R5 cells for 2 hours at 37° C., followed by washing and 48 hour incubation.

The test system of another data set is Prevotella bivia. In words: Anaerobe inhibition assay. To be noted: 2 strains, read-out: Minimum Inhibitory Concentrations (MICs). In kind it is cell-based.
The test system of another data set is HIV-IRF. Description: PC assay (cells pre-treated with compound, washed, then virus). The format is cell-based. To be noted: Human immunodeficiency virus 1, PM1, read-out: 50% Effective Concentrations (IC50). As for the experimental part: PC assay: Indicator T cells (PM-1; 10^5/well) were pre-treated with compound for 1 hour at 37° C., compound was removed by washing with 4 volumes of PBS, treated cells were added to immobilized virus (HIV-IRF; 10^3 TCID50) and incubated for 8 days.
In each of the assays above, viral replication was monitored after 8 days by measuring reverse transcriptase activity.

Another data set has as its system C. glabrata. Description: Aerobe inhibition assay. In kind it is cell-based, Candida glabrata. To be noted: Nakaseomyces glabratus; 3 strains; read-out: Minimum Inhibitory Concentrations (MICs). The protocol:
as §1, §2

Data set [7] deals with HSV-2. In words: HSV-2 virucidal assay. In kind it is cell-based. The note with it: Human alphaherpesvirus 2, 1 h, at 400 μg/ml (highest concentration tested); 60 min at 37° C. As for the experimental part:
The virucidal activities of ciclopiroxolamine against HSV-2 were tested by mixing various concentrations of the test compound with 2×10^5 PFU of HSV-2, respectively, and incubating at 37° C. for 60 min. The culture medium was included as a […] control. At the end of incubation, the mixtures were diluted 1 in 1000 with culture medium. The infectivity of treated virus was determined by a standard viral plaque assay. Briefly, confluent Vero cells were washed with PBS and subsequently infected with 1 ml of treated mixture at 37° C. for 1 h. After viral inoculum was removed, the infected cells were washed with PBS and overlaid with 0.5% methylcellulose in culture medium. The infected cells were incubated at 37° C. for 2 days to allow the plaques to develop.

The subject of the next data set is Clost perfringes. Description: Anaerobe inhibition assay. The note with it: Clostridium, 2 strains, read-out: Minimum Inhibitory Concentrations (MICs). The format is cell-based, Clostridium perfringes. As for the experimental part: as §3, §2
Data set [8] has as its system HIV-1 strain III-B (X4 strain). In words: Viral entry/binding inhibition assay (VBI), strain IIIB. The format is cell-based. The note with it: Human immunodeficiency virus 1, Series 2, P4-R5 cells, 2 hour incubation, read-out: 50% Effective Concentrations (IC50). The protocol:
as §4

For the compound `Cc1cc(C2CCCCC2)n(O)c(=O)c1.NCCO` [CO, 6-Cyclohexyl-1-hydroxy-4-methyl-2-(1H)-pyridone ethanolamine salt], the MIC in data set [1] worked out at 40 µg/mL; with Peptostrep anaerobius it was 40 µg/mL; in the data set on Bacteroides fragilis, 40 µg/mL; in the data set with Staph. aureus (Staphylococcus aureus, read-out: Minimum Inhibitory Concentrations (MICs)), 40 µg/mL; in the data set on Peptrostrep. magnus, 40 µg/mL; in data set [3] (read-out: Minimum Inhibitory Concentrations (MICs)), 40 µg/mL. Also, the MIC in data set [4] came out at 40 µg/mL; in the data set on Mobiluncus curtisii, 40 µg/mL; in the data set on Gardnerella vaginalis, 80 µg/mL; with Prevotella bivia, 40 µg/mL; in the data set on C. glabrata it was 20 µg/mL; in the data set on Clost perfringes it was 40 µg/mL. Besides, the IC50 with HSV-2 [2] stood at 153 µg/mL; in data set [6], 6.9 µg/mL; with HIV-IRF it was 0.96 µg/mL; in data set [8], 45.5 µg/mL. For the same compound, the CC50 (in general, the concentration giving 50% cytotoxicity) at 1 h in the data set “Cytotoxicity assay” (Series 1, Original material, 1 hour incubation, 100 μg/ml highest conc tested) is more than 100 µg/mL; in “Cytotoxicity assay” (Series 3, 1 hour incubation) it was 859 µg/mL. In addition, the entries for the “log reduction (viral infectivity)” value in the data set on HIV (At 0.09%) and with HIV (At 0.3%) were “At 0.09%: ≧2.0 log” and “At 0.3%: ≧2.7 log”, respectively. The “Minimum Inhibitory Concentrations (MICs)” value (in the data set on Staph. aureus; in [3]) was 80 µg/mL throughout. Also, in data set [5], the “effect on lactobacilli (summary in words)” value is listed as “inhibits the growth of lactobacilli but does not kill them”. The inhibition – broadly, how much of the control response was suppressed – at 400 µg/mL with HSV-2 [7] came out at 40%.
